In paper PMC3684244 (Harmful algae, 2013):
Where “and” joins values, the source holds several entries; their conditions need not be identical. Equal entries are not always repeated.

Key:
[1] = test system: brevenal site on voltage-sensitive sodium channels (VSSCs), rat brain synaptosomes; assay type: binding
[2] = target: site 5 on voltage-sensitive sodium channels (VSSCs), rat brain synaptosomes; details: read-out: Ki for inhibition of [^3H]-PbTx-3 binding
[3] = test system: site 5 on voltage-sensitive sodium channels (VSSCs), rat brain synaptosomes; details: cited from earlier work

Compound	Inhibition of [^3H]-brevenol binding (maximum concentration tested) [1]	other results
N=C(N)NC(=O)c1nc(Cl)c(N)nc1N [Amiloride]	No displacement (10 ! M)	
C=C/C=C\CC[C@H]1O[C@H]2CC[C@@]3(C)O[C@H]4[C@@H](O)C[C@@]5(C)O[C@@H](CC/C=C(C)/C(C)=C/C=O)[C@@H](C)C[C@H]5O[C@@H]4C[C@@H]3O[C@@H]2CC[C@@]1(C)O [Brevenal, brevenal]		Ki [2]: 98 nM; Ki ([1]; read-out: Ki for inhibition of [^3H]-brevenol binding): 75 nM and 74.8 nM; Affinity for inhibiting brevetoxin binding relative to brevetoxins (fold lower) [3]: approximately 100 fold
CC1(C)[C@H](C(=O)O[C@H](C#N)c2cccc(Oc3ccccc3)c2)[C@@H]1C=C(Br)Br [Deltamethrin]	No displacement (100 ! M)	
NC1=N[C@H](O)[C@H]2[C@H]3O[C@]4(O)O[C@@H]([C@@H](O)[C@@]2(N1)[C@@H]4O)[C@]3(O)CO [Tetrodotoxin]	No displacement (10 ! M)	
COc1ccc(C(=O)O[C@H]2CC[C@@]3(C)[C@@H]4CC[C@H]5[C@]6(O)C[C@H](O)[C@@]7(O)[C@@H](CN8C[C@@H](C)CC[C@H]8[C@@]7(C)O)[C@]6(O)C[C@@]53O[C@]24O)cc1OC [Veratridine]	No displacement (10 ! M)	
CCN1C[C@]2(COC)[C@H](O)C[C@H](OC)[C@@]34[C@@H]5C[C@@]6(O)[C@H](OC(=O)c7ccccc7)[C@@H]5[C@@](OC(C)=O)([C@@H]([C@H](OC)[C@H]23)[C@@H]14)[C@@H](O)[C@@H]6OC [aconitine]	No displacement (10 ! M)	
